Reference: patent US12174198B2, “Methods of characterizing condensate-associated characteristics of compounds and uses thereof” (Dewpoint Therapeutics, Inc., priority 2019, dated 2024)

How the values were obtained:
Type in all cases: physicochemical
[1] = system: FUS-SNAP condensates versus PGL-3 condensates; assay: Condensate preference: ratio of FUS-SNAP I-in:I-out to PGL-3 I-in:I-out; conditions: average FUS-SNAP I-in:I-out divided by average PGL-3 I-in:I-out
Description: (§1) The ratios of the average intensity measured in the target condensates and outside of the target condensates were calculated by dividing I-in by I-out, although dividing I-out by I-in could also have been used. The I-in:I-out ratios determined from the two different days of experiments were then averaged. The average I-in:I-out ratios for FUS-SNAP condensates are shown in FIG. 3 and the average I-in:I-out ratios for PGL-3 condensates are shown in FIG. 4. The standard deviation between the two experiments is represented by the error bars in FIG. 3 and FIG. 4.

[2] = molecular target: T1, FUS-SNAP condensates (Homo sapiens, UniProt P35637); assay: Fluorescence imaging of dye partitioning in FUS-SNAP condensates (I-in, I-out); conditions: for Ratio of intensity inside:outside FUS-SNAP Condensates Day 1 / Ratio of intensity inside:outside FUS-SNAP Condensates Day 2 / Ratio of intensity inside:outside FUS-SNAP Condensates Average: I-in:I-out; for Ratio of intensity inside:outside FUS-SNAP Condensates Day 1 / Ratio of intensity inside:outside FUS-SNAP Condensates Day 2 / Ratio of intensity inside:outside FUS-SNAP Condensates Average / Intensity Inside with Dye Average / Intensity Inside with Dye 1 / Intensity Inside with Dye 2 / Intensity Inside with Dye 3 / Intensity Outside with Dye Average / Intensity Outside with Dye 1 / Intensity Outside with Dye 2 / Intensity Outside with Dye 3: 10 μM dye; for Ratio of intensity inside:outside FUS-SNAP Condensates Average: average of two days; for Intensity Inside with Dye Average / Intensity Inside with Dye 1 / Intensity Inside with Dye 2 / Intensity Inside with Dye 3 / Intensity Inside Dye-No Dye: inside FUS-SNAP condensate; for Intensity Inside with Dye Average / Intensity Inside with Dye 1 / Intensity Inside with Dye 2 / Intensity Inside with Dye 3 / Intensity Outside with Dye Average / Intensity Outside with Dye 1 / Intensity Outside with Dye 2 / Intensity Outside with Dye 3: 5 μM protein; for Intensity Inside with Dye Average / Intensity Outside with Dye Average: average of three images; for Intensity Inside with Dye Average / Intensity Inside with Dye 1 / Intensity Inside with Dye 2 / Intensity Inside with Dye 3 / Intensity Inside Dye-No Dye / Intensity Outside with Dye Average / Intensity Outside with Dye 1 / Intensity Outside with Dye 2 / Intensity Outside with Dye 3 / Intensity Outside (Dye-No Dye): one day of experiments; for Intensity Inside with Dye 1 / Intensity Outside with Dye 1: image 1; for Intensity Inside with Dye 2 / Intensity Outside with Dye 2: image 2; for Intensity Inside with Dye 3 / Intensity Outside with Dye 3: image 3; for Intensity Inside Dye-No Dye / Intensity Outside (Dye-No Dye): background corrected; for Intensity Outside with Dye Average / Intensity Outside with Dye 1 / Intensity Outside with Dye 2 / Intensity Outside with Dye 3 / Intensity Outside (Dye-No Dye): outside FUS-SNAP condensate
T1 sequence (P35637 1-526): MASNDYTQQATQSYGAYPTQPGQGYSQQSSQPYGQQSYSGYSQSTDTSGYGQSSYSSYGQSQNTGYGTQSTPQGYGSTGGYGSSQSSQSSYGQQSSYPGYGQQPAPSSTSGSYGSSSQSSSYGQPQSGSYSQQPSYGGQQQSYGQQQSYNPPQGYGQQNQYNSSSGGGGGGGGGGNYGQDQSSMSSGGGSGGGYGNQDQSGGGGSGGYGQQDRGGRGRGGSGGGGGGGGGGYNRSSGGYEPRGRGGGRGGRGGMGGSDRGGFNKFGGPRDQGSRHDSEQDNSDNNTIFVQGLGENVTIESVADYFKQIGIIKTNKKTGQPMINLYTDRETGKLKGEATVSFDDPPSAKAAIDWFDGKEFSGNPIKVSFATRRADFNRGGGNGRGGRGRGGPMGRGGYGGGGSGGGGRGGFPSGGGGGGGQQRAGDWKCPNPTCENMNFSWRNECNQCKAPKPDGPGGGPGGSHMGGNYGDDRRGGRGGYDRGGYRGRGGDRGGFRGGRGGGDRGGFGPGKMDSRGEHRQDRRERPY
Description: (§2) All dye-stocks were stored as 1 mM solutions in 100% DMSO. The dyes were dissolved in dilution buffer (DB: 14.7 mM Tris, pH 7.25, 1 mM DTT) to yield 11.765 μM dye in 1.1765 DMSO. 17 μl of dye was distributed in a 384 well non-binding plate (Greiner).
(§3) Either SNAP-tagged FUS protein or tag-free PGL-3 protein was thawed at room temperature for at least 10 min, and the buffer was exchanged to partitioning buffer (PB: 50 mM Tris pH 7.25, 500 mM KCl, 5% Glycerol, and 1 mM DTT). The protein was then diluted to 33.3 μM in PB. 3 μl of protein solution were added to the 384 well plate to initiate phase separation, yielding 20 μl of 5 μM protein and 10 μM dye in 75 mM KCl, 0.75% Glycerol, 20 mM Tris, 1 mM DTT, and 1% DMSO or for no dye control reactions, 20 μl of 5 μM protein in 75 mM KCl, 0.75% Glycerol, 20 mM Tris, 1 mM DTT.
(§4) A spinning disk confocal microscope was used to acquire images of the samples. A 60×oil high-NA objective lens was used to capture the condensate droplets. The laser power was set to 20% and the exposure times were adjusted to the fluorescence emission intensity specific for each dye. Exposure times ranged from 1-1000 ms. Appropriate filter settings were used, matching the excitation and emission spectra of the respective dyes. Three images per well were taken. The background signal of protein droplets in the absence of dye was recorded for all applied imaging conditions.
(§5) Fluorescence intensity was measured inside one exemplary target condensate (Intensity inside, I-in) per image and in a region next to the exemplary target condensate (Intensity outside, I-out) by hand using the image analysis software Fiji. An example depicting the regions measured is shown FIG. 2A. Three I-in and three I-out values were measured in total for each dye in each experiment and were averaged. The measured I-in and I-out values for FUS-SNAP condensates on one day of experiments are shown in Table 2 and Table 3, respectively. The measured I-in and I-out values for PGL-3 condensates on one day of experiments are shown in Table 4 and Table 5, respectively. All values were background corrected, based on the background images (no dye controls) taken with the same microscope conditions.
as §1

[3] = molecular target: T2, PGL-3 condensates (Caenorhabditis elegans, UniProt G5EBV6); assay: Fluorescence imaging of dye partitioning in PGL-3 condensates (I-in, I-out); conditions: for Ratio of intensity inside:outside PGL-3 Condensates Day 1 / Ratio of intensity inside:outside PGL-3 Condensates Day 2 / Ratio of intensity inside:outside PGL-3 Condensates Average: I-in:I-out; for Ratio of intensity inside:outside PGL-3 Condensates Day 1 / Ratio of intensity inside:outside PGL-3 Condensates Day 2 / Ratio of intensity inside:outside PGL-3 Condensates Average / Intensity Inside with Dye Average / Intensity Inside with Dye 1 / Intensity Inside with Dye 2 / Intensity Inside with Dye 3 / Intensity Outside with Dye Average / Intensity Outside with Dye 1 / Intensity Outside with Dye 2 / Intensity Outside with Dye 3: 10 μM dye; for Ratio of intensity inside:outside PGL-3 Condensates Average: average of two days; for Intensity Inside with Dye Average / Intensity Inside with Dye 1 / Intensity Inside with Dye 2 / Intensity Inside with Dye 3 / Intensity Inside Dye-No Dye: inside PGL-3 condensate; for Intensity Inside with Dye Average / Intensity Inside with Dye 1 / Intensity Inside with Dye 2 / Intensity Inside with Dye 3 / Intensity Outside with Dye Average / Intensity Outside with Dye 1 / Intensity Outside with Dye 2 / Intensity Outside with Dye 3: 5 μM protein; for Intensity Inside with Dye Average / Intensity Outside with Dye Average: average of three images; for Intensity Inside with Dye Average / Intensity Inside with Dye 1 / Intensity Inside with Dye 2 / Intensity Inside with Dye 3 / Intensity Inside Dye-No Dye / Intensity Outside with Dye Average / Intensity Outside with Dye 1 / Intensity Outside with Dye 2 / Intensity Outside with Dye 3 / Intensity Outside (Dye-No Dye): one day of experiments; for Intensity Inside with Dye 1 / Intensity Outside with Dye 1: image 1; for Intensity Inside with Dye 2 / Intensity Outside with Dye 2: image 2; for Intensity Inside with Dye 3 / Intensity Outside with Dye 3: image 3; for Intensity Inside Dye-No Dye / Intensity Outside (Dye-No Dye): background corrected; for Intensity Outside with Dye Average / Intensity Outside with Dye 1 / Intensity Outside with Dye 2 / Intensity Outside with Dye 3 / Intensity Outside (Dye-No Dye): outside PGL-3 condensate
T2 sequence (G5EBV6 1-693): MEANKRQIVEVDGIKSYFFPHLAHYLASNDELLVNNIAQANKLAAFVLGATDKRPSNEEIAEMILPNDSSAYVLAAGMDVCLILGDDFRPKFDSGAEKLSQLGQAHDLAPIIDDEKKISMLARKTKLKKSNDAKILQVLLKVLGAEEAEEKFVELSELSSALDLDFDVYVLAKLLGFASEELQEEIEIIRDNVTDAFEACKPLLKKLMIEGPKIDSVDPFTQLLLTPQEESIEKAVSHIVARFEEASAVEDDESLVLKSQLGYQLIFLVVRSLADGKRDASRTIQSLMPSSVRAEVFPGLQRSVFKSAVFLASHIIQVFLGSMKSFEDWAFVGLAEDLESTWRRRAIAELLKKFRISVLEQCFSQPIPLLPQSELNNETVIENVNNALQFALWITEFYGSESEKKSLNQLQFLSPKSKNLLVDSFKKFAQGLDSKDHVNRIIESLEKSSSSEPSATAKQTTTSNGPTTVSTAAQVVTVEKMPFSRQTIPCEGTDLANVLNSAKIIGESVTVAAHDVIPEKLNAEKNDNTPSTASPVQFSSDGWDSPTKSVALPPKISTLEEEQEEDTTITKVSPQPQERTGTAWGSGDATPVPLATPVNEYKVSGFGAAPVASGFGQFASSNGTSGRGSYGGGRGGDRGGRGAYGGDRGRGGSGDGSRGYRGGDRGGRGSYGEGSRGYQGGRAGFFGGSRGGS
Description: as §2, §3, §4, §5, §1

Row | Compound | Ratio of FUS-SNAP:PGL-3 [1] | Ratio of intensity inside:outside FUS-SNAP Condensates Day 1 [2] | Ratio of intensity inside:outside FUS-SNAP Condensates Day 2 [2] | Ratio of intensity inside:outside FUS-SNAP Condensates Average [2] | Intensity Inside with Dye Average [2] | Intensity Inside with Dye 1 [2] | Intensity Inside with Dye 2 [2] | Intensity Inside with Dye 3 [2] | Intensity Inside Dye-No Dye [2] | Intensity Outside with Dye Average [2] | Intensity Outside with Dye 1 [2] | Intensity Outside with Dye 2 [2] | Intensity Outside with Dye 3 [2] | Intensity Outside (Dye-No Dye) [2] | Ratio of intensity inside:outside PGL-3 Condensates Day 1 [3] | Ratio of intensity inside:outside PGL-3 Condensates Day 2 [3] | Ratio of intensity inside:outside PGL-3 Condensates Average [3] | Intensity Inside with Dye Average [3] | Intensity Inside with Dye 1 [3] | Intensity Inside with Dye 2 [3] | further results
1 | O=C(O)c1cc2cc3c4c(c2oc1=O)CCCN4CCC3 [Dye 3, Coumarin 343] | 2.0 | 2.5 | 2.8 | 2.7 | 3572.7 | 3451.6 | 3462.2 | 3804.4 | 3452.8 | 1498.4 | 1486.5 | 1529.0 | 1479.6 | 1378.3 | 1.5 | 1.1 | 1.3 | 2098.0 | 2228.4 | 2006.3 | Intensity Inside with Dye 3 [3]: 2059.4; Intensity Inside Dye-No Dye [3]: 1977.3; Intensity Outside with Dye Average [3]: 1447.1; Intensity Outside with Dye 1 [3]: 1472.5; Intensity Outside with Dye 2 [3]: 1407.6; Intensity Outside with Dye 3 [3]: 1461.1; Intensity Outside (Dye-No Dye) [3]: 1326.6
2 | 6-[Fluorescein-5(6)-carboxamido]-hexanoic acid [Dye 8] | 1.6 | 1.7 | 1.6 | 1.6 | 5354.9 | 5285.1 | 5631.6 | 5148.0 | 5219.7 | 3178.8 | 3064.0 | 3267.0 | 3205.5 | 3074.8 | 1.0 | 1.0 | 1.0 | 3538.6 | 3527.5 | 3608.1 | Intensity Inside with Dye 3 [3]: 3480.3; Intensity Inside Dye-No Dye [3]: 3392.1; Intensity Outside with Dye Average [3]: 3496.8; Intensity Outside with Dye 1 [3]: 3491.4; Intensity Outside with Dye 2 [3]: 3551.4; Intensity Outside with Dye 3 [3]: 3447.6; Intensity Outside (Dye-No Dye) [3]: 3391.4
3 | O=c1cc(C(F)(F)F)c2ccc(O)cc2o1 [Dye 2, 7-Hydroxy-4-(trifluoromethyl)-coumarin] | 1.2 | 1.4 | 1.2 | 1.3 | 280.9 | 278.2 | 278.1 | 286.5 | 160.9 | 232.0 | 235.7 | 228.5 | 232.0 | 112.0 | 1.0 | 1.1 | 1.1 | 269.8 | 273.9 | 267.0 | Intensity Inside with Dye 3 [3]: 268.3; Intensity Inside Dye-No Dye [3]: 149.0; Intensity Outside with Dye Average [3]: 262.4; Intensity Outside with Dye 1 [3]: 263.1; Intensity Outside with Dye 2 [3]: 258.0; Intensity Outside with Dye 3 [3]: 266.0; Intensity Outside (Dye-No Dye) [3]: 141.9
4 | CC(=O)c1cc2cc3c4c(c2oc1=O)CCCN4CCC3 [Dye 4, Coumarin 334] | 1.9 | 2.1 | 3.0 | 2.6 | 10851.1 | 10755.9 | 10738.6 | 11058.9 | 10353.6 | 5030.3 | 4894.0 | 5118.6 | 5078.2 | 4890.2 | 1.4 | 1.3 | 1.3 | 204.8 | 212.2 | 205.0 | Intensity Inside with Dye 3 [3]: 197.2; Intensity Inside Dye-No Dye [3]: 84.0; Intensity Outside with Dye Average [3]: 179.0; Intensity Outside with Dye 1 [3]: 178.0; Intensity Outside with Dye 2 [3]: 179.6; Intensity Outside with Dye 3 [3]: 179.5; Intensity Outside (Dye-No Dye) [3]: 58.6
